In PMC5131496, “In vitro and in vivo anti-malarial activity of novel harmine-analog heat shock protein 90 inhibitors: a possible partner for artemisinin” (Malaria Journal, 2016):

Biological target: T1, P. falciparum heat shock protein 90 (PfHsp90) (Plasmodium falciparum, UniProt Q8IC05)
T1 construct: gene PF3D7_0708400
Assay: bis-ANS fluorescence competitive binding assay with purified recombinant GHKL domain

T1 sequence (Q8IC05 1-211 limits assumed): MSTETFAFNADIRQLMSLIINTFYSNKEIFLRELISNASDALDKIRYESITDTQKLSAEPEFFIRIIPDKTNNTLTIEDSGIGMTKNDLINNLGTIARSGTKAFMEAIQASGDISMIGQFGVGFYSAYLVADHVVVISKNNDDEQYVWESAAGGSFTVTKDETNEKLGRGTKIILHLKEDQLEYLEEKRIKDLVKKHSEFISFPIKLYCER

Structure (SMILES)	IC50 [µM]
CC1NCCc2c1[nH]c1ccc(Cl)cc21 (centres unmarked) [17A]	12.2 ± 2.3
CC1NCCc2c1[nH]c1ccc(Br)cc21 (centres unmarked) [21A]	23.1 ± 8.8
